Experimental data taken from PMC10897196, “Structure–activity characteristics of phenylalanine analogs selectively transported by L-type amino acid transporter 1 (LAT1)” (Scientific Reports, 2024).

Tests used:
human LAT1 = target: T1, human LAT1 (Homo sapiens, UniProt Q01650); assay: Efflux of pre-loaded L-[14C]leucine from HEK293-hLAT1 cells induced by extracellular compounds; type: cell-based; details: 1 min
T1 construct: expressed in transfected cells
Description: (§1) We evaluated the efflux of pre-loaded L-[^14C]leucine from LAT1 and pre-loaded L-[^14C]alanine from LAT2 induced by extracellularly applied compounds.
(§2) Efflux experiments were performed as described previously. Cells cultured 48 h were pre-loaded with 5 μM L-[^14C]leucine or L-[^14C]alanine for 10 min at 37 °C. The cells were then washed, and the efflux was induced by incubating cells for 1 min in either the absence or presence of non-radiolabeled test compounds at indicated concentrations. The efflux time of 1 min fell within the linear range of time-dependent substrate efflux mediated by LAT1 and LAT2 (Supplementary Fig. S2). Following incubation, the medium was collected and radioactivity was measured in both the medium and the cells. Efflux was quantified as the percentage of radioactivity released into the medium, calculated using the formula: radioactivity of medium/(radioactivity of medium + radioactivity of cells) × 100%.
(§3) The kinetic parameters for the efflux of L-[^14C]leucine or L-[^14C]alanine induced by various concentrations of extracellularly-applied test compounds were analyzed. The baseline efflux values—those obtained in the absence of test compounds—were subtracted from the values measured in the presence of the compounds. The resultant data were fitted to Michaelis–Menten kinetics to determine the Km and Vmax by nonlinear regression analysis using “enzyme kinetics-velocity as a function of substrate” module within GraphPad Prism software.

human LAT2 = target: T2, human LAT2 (Homo sapiens, UniProt Q9UHI5); assay: Efflux of pre-loaded L-[14C]alanine from HEK293-hLAT2 cells induced by extracellular compounds; type: cell-based; details: 1 min
T2 construct: expressed in transfected cells
T2 sequence (Q9UHI5 1-535): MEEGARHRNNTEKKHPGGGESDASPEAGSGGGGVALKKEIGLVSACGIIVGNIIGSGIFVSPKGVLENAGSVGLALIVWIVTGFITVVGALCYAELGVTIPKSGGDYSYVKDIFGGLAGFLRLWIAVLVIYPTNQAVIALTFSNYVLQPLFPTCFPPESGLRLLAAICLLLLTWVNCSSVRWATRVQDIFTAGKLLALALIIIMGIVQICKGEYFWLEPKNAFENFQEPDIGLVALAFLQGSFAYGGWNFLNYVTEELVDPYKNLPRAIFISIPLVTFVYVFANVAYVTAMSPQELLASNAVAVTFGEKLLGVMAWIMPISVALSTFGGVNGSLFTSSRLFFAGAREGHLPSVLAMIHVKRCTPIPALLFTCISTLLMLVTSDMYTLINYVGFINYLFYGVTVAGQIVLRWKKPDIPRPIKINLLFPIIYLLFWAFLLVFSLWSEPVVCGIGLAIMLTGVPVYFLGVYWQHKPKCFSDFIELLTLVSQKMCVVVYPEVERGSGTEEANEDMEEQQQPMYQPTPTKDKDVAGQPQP
T2 sequence (P08195 1-529 partner): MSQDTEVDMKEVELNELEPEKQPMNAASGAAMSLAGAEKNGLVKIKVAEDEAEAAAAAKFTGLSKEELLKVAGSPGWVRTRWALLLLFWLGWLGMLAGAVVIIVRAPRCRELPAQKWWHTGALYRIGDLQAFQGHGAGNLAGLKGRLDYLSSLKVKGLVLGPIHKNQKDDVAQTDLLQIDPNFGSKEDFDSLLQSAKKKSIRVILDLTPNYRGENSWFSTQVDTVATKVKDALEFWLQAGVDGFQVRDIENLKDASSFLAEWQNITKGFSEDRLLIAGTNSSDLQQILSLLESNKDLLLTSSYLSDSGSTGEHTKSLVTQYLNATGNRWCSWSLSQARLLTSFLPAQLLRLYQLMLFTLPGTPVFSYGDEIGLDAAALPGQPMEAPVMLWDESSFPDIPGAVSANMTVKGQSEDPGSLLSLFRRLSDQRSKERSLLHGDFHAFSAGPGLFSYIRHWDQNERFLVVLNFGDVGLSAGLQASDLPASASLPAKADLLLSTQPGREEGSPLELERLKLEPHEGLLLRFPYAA
Description: as §1, §2, §3

[1] = LAT1, L-[14C]leucine efflux, mean ± S.E.M., n = 3

T1 sequence (Q01650 whole entry, one chain of several): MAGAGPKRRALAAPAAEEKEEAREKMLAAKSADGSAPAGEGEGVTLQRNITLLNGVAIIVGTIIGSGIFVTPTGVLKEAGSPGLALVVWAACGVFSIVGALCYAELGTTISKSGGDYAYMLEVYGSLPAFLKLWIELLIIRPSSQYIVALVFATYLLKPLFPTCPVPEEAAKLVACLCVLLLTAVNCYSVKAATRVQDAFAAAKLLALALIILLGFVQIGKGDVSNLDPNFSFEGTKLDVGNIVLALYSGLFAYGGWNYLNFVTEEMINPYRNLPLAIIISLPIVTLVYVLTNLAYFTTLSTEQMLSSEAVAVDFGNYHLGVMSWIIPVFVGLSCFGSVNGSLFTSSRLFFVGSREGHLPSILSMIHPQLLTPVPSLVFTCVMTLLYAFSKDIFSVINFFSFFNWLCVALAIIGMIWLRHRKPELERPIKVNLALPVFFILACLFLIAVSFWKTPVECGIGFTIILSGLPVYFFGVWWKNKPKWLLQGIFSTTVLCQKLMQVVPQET

N[C@]1(C(=O)O)CCc2ccccc2C1 [bicyclic-Phe, (R)-2-amino-1,2,3,4-tetrahydro-2-naphthoic acid]
Km (human LAT1; [1]): 27.3 ± 3.08 µM
Vmax of efflux (% radioactivity/min) (human LAT1; [1]): 15.43 ± 0.40 % radioactivity/min
LAT1-mediated L-[14C]leucine efflux induced (in words) (human LAT1; compounds at 10, 30, 100 μM): transported by LAT1 as substrates
Vmax of efflux (% radioactivity/min) (human LAT2; LAT2, L-[14C]alanine efflux, mean ± S.E.M., n = 3): 10.05 ± 0.27 % radioactivity/min
LAT2-mediated L-[14C]alanine efflux induced (in words) (human LAT2; compounds at 10, 30, 100 μM): not efficiently transported by LAT2
